# Data taken from patent publication US12383526B2, “Optimized sigma-1 agonist method of responder selection and treatment” (ANAVEX LIFE SCIENCES CORP., priority 2018, dated 2025).
# Marks after values point to notes of the source that are not given here.
# How the values were obtained:
# [1] = tested on: cholinergic muscarinic receptors; settings: mice; cited from earlier work
# [2] = tested on: Alzheimer's disease / dementia patients; experiment: Sigma-1 agonist responder determination and therapy, single-patient examples 6-13; assay type: in vivo, human; settings: 6 months
# Method: A person presents with diagnosed Alzheimer's disease. Their SIGMAR1 gene is analyzed to the extent that it is determined that they carry glutamine at the 2 position of the SIGMAR1 gene. This is the wildtype. They are treated with A2-73 daily with a 30 mg oral dose. For 6 months.
# A person presents with diagnosed Alzheimer's disease. A cheek swab is taken and a genotype assay is performed to determine the presence of the SIGMAR1 2P genotype. By such analysis it is determined that the subject carries glutamine at the 2 position of the SigmaR1 gene receptor (protein). They are treated with ANAVEX2-73 daily with a 30 mg oral dose. For 6 months.
# A person presents with diagnosed dementia. Their SIGMAR1 gene is analyzed to the extent that it is determined that they carry proline at the 2 position of the SIGMAR1 gene. They are treated with ANAVEX2-73 daily with a 80 mg oral dose in combination with 1.5 mg oral rivastigmine twice per day for 6 months.
# A person presents with diagnosed Alzheimer's disease. […] They are treated with the A2-73 daily with a 30 mg oral dose. For 6 months.
# A person presents with diagnosed Alzheimer's disease. […] They are treated with A2-73 daily with a 30 mg oral dose. For 6 months.
# A person presents with diagnosed dementia. They carry glutamine at the 2 position of the SIGMAR1 gene. It is determined that they carry the KANSL1_p.P1010L/P304L/P946L mutation. They are treated with ANAVEX2-73 daily with a 70 mg oral dose in combination with 7 mg oral memantine daily for 6 months.
# [3] = tested on: subjects with mild-to-moderate AD; experiment: MMSE (Mini Mental State Examination) change from baseline, 57-week Phase 2a study and 208-week extension study; assay type: in vivo, human; settings: for MMSE Cohen's d: week 57, compared to standard of care
# Excerpt: The present study integrates and analyzes data and samples from two consecutive clinical trials: 57-week study and 208-week study. 57-week study was a multicenter Phase 2a clinical trial of the drug ANAVEX2-73 that recruited a sample of 32 subjects with mild-to-moderate AD. It consisted of two parts: Part A was a simple randomized, open-label, two-period, cross-over, adaptive trial lasting up to 5 weeks. Each period involved one specific administration route and two possible dose levels: in one period the oral dose (30 mg or 50 mg) was administrated and in the other period an intravenous (IV) form (3 mg or 5 mg) was administered, making a total of 8 possible dose administration schemes in Part A (details available in FIG. 2A). The two periods were separated by a wash-out period of 12 days where no dose was given.
# Part B, following immediately after Part A, was an open-label extension of the oral daily dose for an additional 52 weeks. The primary endpoint of 57-week study was to establish the safety and tolerability of the drug. Secondary endpoints aimed at establishing the relationship between dosing regimen and pharmacodynamics-exploratory efficacy outcomes of cognition and function. Cognition was assessed by the Mini Mental State Examination (MMSE), while functional abilities by the Alzheimer's Disease Co-operative Study—Activities of Daily Living Inventory (ADCS-ADL). Additional cognitive measures included the Cogstate Brief Battery (CBB), and functional measures of Electroencephalography and Event-Related Potential (EEG and ERP). Part B continued an adaptive oral administration scheme. Table 12 summarizes mean oral dose administration during the 57-week study study.
# Due to favorable safety and tolerability profile of the 57-week study (Table 2), and in response to requests from patients and caregivers, a 208-week open-label extension study (208-week study) was carried out immediately after completion of 57-week study Part B. 208-week study enrolled the 24 subjects who completed Part B and applied similarly an adaptive daily oral administration scheme. ANAVEX2-73-003 involves continuous evaluation of safety and efficacy as measured by the MMSE and ADCS-ADL. At week 148 (interim time point for analyses), data on the subjects remaining in the study (n=21) was analyzed for efficacy outcomes. This report was drafted using data available at week 148, while ANAVEX2-73-003 is still ongoing.
# Exploratory clinical efficacy in this study was defined as change from baseline of each patient's cognitive (MMSE) and functional ability (ADCS-ADL) scores. The MMSE57 is a widely used, validated instrument in clinical AD research, including as a cognitive outcome measure in drug trials. The range of the scale is from 0 to 30, with a higher score indicating higher cognitive function. The ADCS-ADL58 is undertaken in a structured caregiver interview format and assesses performance in activities of daily living of patients with AD. The scale is from 0 to 78, with a higher score indicating greater function. The ADCS-ADL has shown to have good test-retest reliability 59. The MMSE and the ADCS-ADL were assessed during pre-specified clinical site visits across 14 different time points during the 57-week study (Weeks 0 and 5 in Part A; Weeks 17, 31, 41, 53, and 57 in Part B), and 208-week study (Weeks 70, 83, 96, 109, 122, 135, and 148) studies.
# Corresponding Delta scores were calculated using the difference between values at each visit and at baseline for each individual patient, with a focus on Week 57. In addition, to lower the impact of noise in MMSE and ADCS-ADL scores, a Slope was estimated using a linear regression across all available time points for each individual patient. The derived scores describe the progression of exploratory efficacy data from baseline at several specific time points (Deltas) and over a set period of time (Slope). […]
# [4] = Phase 1 study; 1-60 mg range; male healthy subjects; cited from earlier work
# [5] = Absence of COMT_L146fs variant & Baseline MMSE ≥20, N 11
# [6] = Absence of COMT_L146fs variant, N 16
# [7] = Absence of SIGMAR1_Q2P variant, N 16
# [8] = Absence of SIGNAR1_Q2P variant & Baseline MMSE ≥20, N 11
compound,measurement,setting,value
"CN(C)CC1CCOC1(c1ccccc1)c1ccccc1.Cl (stereo not drawn) [ANAVEX2-73, tetrahydro-N,N-dimethyl-2,2-diphenyl-3-furanmethanamine hydrochloride]",modulation of cholinergic muscarinic receptors,[1],modulate cholinergic muscarinic receptors
same,disease course,"[2]; Example 6: person, Alzheimer's disease, glutamine at the 2 position of SIGMAR1, 30 mg oral daily",stable and not progress
same,disease course,"[2]; Example 7: person, Alzheimer's disease, glutamine at the 2 position (cheek swab genotype assay), 30 mg oral daily",stable and not progress
same,disease course,"[2]; Example 9: person, dementia, proline at the 2 position of SIGMAR1, 80 mg oral daily in combination with 1.5 mg oral rivastigmine twice per day",stable and not progress
same,disease course,"[2]; Example 10: person, Alzheimer's disease, no COMT rs113895332/rs61143203 mutation, 30 mg oral daily",stable and not progress
same,disease course,"[2]; Example 11: person, Alzheimer's disease, no SIGMAR1 rs1800866, 30 mg oral daily",stable and not progress
same,disease course,"[2]; Example 13: person, dementia, glutamine at the 2 position, KANSL1_p.P1010L/P304L/P946L mutation, 70 mg oral daily in combination with 7 mg oral memantine daily",stable and not progress
same,MMSE Mean Δ at 57 weeks,[3]; [5],0.18 ± 4.35
same,MMSE Mean Δ at 57 weeks,[3]; [6],−0.62 ± 4.05
same,MMSE Mean Δ at 57 weeks,"[3]; Absence of SIGMAR1_Q2P variant & Absence of COMT_L145fs variant & Baseline MMSE ≥20, N 10",0.50 ± 4.45
same,MMSE Mean Δ at 57 weeks,[3]; [7],−0.62 ± 4.11
same,MMSE Mean Δ at 57 weeks,[3]; [8],0.27 ± 4.29
same,MMSE Mean Δ at 57 weeks,"[3]; All, N 21",−1.52 ± 4.15
same,MMSE Mean Δ at 57 weeks,"[3]; Baseline MMSE ≥20, N 13",−0.15 ± 4.06
same,"favorable difference in adjusted MMSE, higher concentration arm compared with low/medium arm","[3]; MMRM-LME, over 148 weeks",78%
same,MMSE Cohen's d,[3]; [5],0.98**
same,MMSE Cohen's d,[3]; [6],0.81**
same,MMSE Cohen's d,[3]; [7],0.81**
same,MMSE Cohen's d,[3]; [8],1.01**
same,MMSE Cohen's d,"[3]; Baseline MMSE ≥20, N 13",0.94**
same,relationship between dose and plasma concentration,[4],linear
